Key:
human 20S proteasome β1 = target: T1, human 20S proteasome β1 (Homo sapiens, UniProt P28072); assay: 20S Proteasome Assay, β1 selective substrate (Z-LLE-AMC); type: biochemical; details: typically tested as mannitol esters; for inhibition at 0.41 µM: concentration 0.41 μM; for inhibition at 0.33 µM: concentration 0.33 μM
T1 construct: purchased Boston Biochem
Protocol: (§1) β1 Selective substrate: To 1 μL of test compound dissolved in DMSO in a 384-well microtiter plate is added 25 μL of assay buffer at 37° C. containing human PA28 activator (Boston Biochem, 12 nM final) with Z-LLE-AMC ([…]1 selective substrate) (15 μM final), followed by 25 μL of assay buffer at 37° C. containing human 20S proteasome (Boston Biochem, 0.25 nM final). Assay buffer is composed of 20 mM HEPES, 0.5 mM EDTA and 0.01% BSA, pH7.4. The reaction is followed on a BMG Galaxy plate reader (37° C., excitation 380 nm, emission 460 nm, gain 20). Percent inhibition is calculated relative to 0% inhibition (DMSO) and 100% inhibition (10 μM bortezomib) controls. Compound of formula (I) are typically tested in this assay as their mannitol esters (prepared as described above). The mannitol esters are hydrolyzed to the free active boronic acid species.

human 20S proteasome β5 = target: T2, human 20S proteasome β5 (Homo sapiens, UniProt P28074); assay: 20S Proteasome Assay, β5 selective substrate (Ac-WLA-AMC); type: biochemical; details: concentration 0.41 μM; typically tested as mannitol esters
T2 construct: purchased Boston Biochem
Protocol: as §1, with “β5” for “β1”, “384-well black” for “384-well”, “Ac-WLA-AMC (β5” for “Z-LLE-AMC ([…]1”

SMILES	inhibition at 0.41 µM (human 20S proteasome β1)	inhibition at 0.41 µM (human 20S proteasome β5)	inhibition at 0.33 µM (human 20S proteasome β1)
O=C(N[C@@H](CC1CC1)B(O)O)[C@H](Cc1ccccc1)NS(=O)(=O)c1ccc(Oc2ccccn2)cc1 [Compound 1, ((1R)-2-cyclopropyl-1-{[(2S)-3-phenyl-2-({[4-(pyridin-2-yloxy)phenyl]sulfonyl}amino)propanoyl]amino}ethyl)boronic acid]	67.2%	91.8%	–
O=C(N[C@@H](CC1CC1)B(O)O)[C@H](Cc1ccccc1)NS(=O)(=O)c1ccc(Oc2cccnc2)cc1 [Compound 2, ((1R)-2-cyclopropyl-1-{[(2S)-3-phenyl-2-({[4-(pyridin-3-yloxy)phenyl]sulfonyl}amino)propanoyl]amino}ethyl)boronic acid]	70.7%	89%	–
O=C(N[C@@H](CC1CC1)B(O)O)[C@H](Cc1ccccc1)NS(=O)(=O)c1ccc2ncsc2c1 [Compound 4, [(1R)-1-({(2S)-2-[(1,3-benzothiazol-6-ylsulfonyl)amino]-3-phenylpropanoyl}amino)-2-cyclopropylethyl]boronic acid]	73.2%	89.8%	–
O=C(N[C@@H](CC1CC1)B(O)O)[C@H](Cc1ccccc1)NS(=O)(=O)c1ccc(-c2cnco2)cc1 [Compound 6, ((1R)-2-cyclopropyl-1-{[(2S)-2-({[4-(1,3-oxazol-5-yl)phenyl]sulfonyl}amino)-3-phenylpropanoyl]amino}ethyl)boronic acid]	65.4%	92.9%	–
O=C(N[C@@H](CC1CC1)B(O)O)[C@H](Cc1ccccc1)NS(=O)(=O)c1cccc(Oc2ccc(C(F)(F)F)cn2)c1 [Compound 7, {(1R)-2-cyclopropyl-1-[((2S)-3-phenyl-2-{[(3-{[5-(trifluoromethyl)pyridin-2-yl]oxy}phenyl)sulfonyl]amino}propanoyl)amino]ethyl}boronic acid]	81.3%	93%	–
O=C(N[C@@H](Cc1ccccc1)C(=O)N[C@@H](CC1CC1)B(O)O)c1cc(Cl)ccc1Cl [Compound 9, [(1R)-2-cyclopropyl-1-({(2S)-2-[(2,5-dichlorobenzoyl)amino]-3-phenylpropanoyl}amino)ethyl]boronic acid]	–	93.3%	91.1%
O=C(N[C@@H](Cc1ccccc1)C(=O)N[C@@H](CC1CC1)B(O)O)c1cnccn1 [Compound 12, [(1R)-2-cyclopropyl-1-({(2S)-3-phenyl-2-[(pyrazin-2-ylcarbonyl)amino]propanoyl}amino)ethyl]boronic acid]	–	81.9%	93%
CN1C(=O)Cc2cc(S(=O)(=O)N[C@@H](Cc3ccccc3)C(=O)N[C@@H](CC3CC3)B(O)O)ccc21 [Compound 13, {(1R)-2-cyclopropyl-1-[((2S)-2-{[(1-methyl-2-oxo-2,3-dihydro-1H-indol-5-yl)sulfonyl]amino}-3-phenylpropanoyl)amino]ethyl}boronic acid]	66.7%	83.7%	–
O=C(N[C@@H](CC1CC1)B(O)O)[C@H](Cc1ccccc1)NS(=O)(=O)c1ccc(Oc2ccncc2)cc1 [Compound 14, ((1R)-2-cyclopropyl-1-{[(2S)-3-phenyl-2-({[4-(pyridin-4-yloxy)phenyl]sulfonyl}amino)propanoyl]amino}ethyl)boronic acid]	75.7%	93.1%	–
O=C1COc2cc(S(=O)(=O)N[C@@H](Cc3ccccc3)C(=O)N[C@@H](CC3CC3)B(O)O)c(Cl)cc2N1 [Compound 15, {(1R)-1-[((2S)-2-{[(6-chloro-3-oxo-3,4-dihydro-2H-1,4-benzoxazin-7-yl)sulfonyl]amino}-3-phenylpropanoyl)amino]-2-cyclopropylethyl}boronic acid]	77.1%	90.3%	–
O=C(c1cccc(S(=O)(=O)N[C@@H](Cc2ccccc2)C(=O)N[C@@H](CC2CC2)B(O)O)c1)c1ccccn1 [Compound 16, ((1R)-2-cyclopropyl-1-{[(2S)-3-phenyl-2-({[3-(pyridin-2-ylcarbonyl)phenyl]sulfonyl}amino)propanoyl]amino}ethyl)boronic acid]	82.7%	90.8%	–
O=C(N[C@@H](CC1CC1)B(O)O)[C@H](Cc1ccccc1)NS(=O)(=O)c1cccc2cnccc12 [Compound 17, [(1R)-2-cyclopropyl-1-({(2S)-2-[(isoquinolin-5-ylsulfonyl)amino]-3-phenylpropanoyl}amino)ethyl]boronic acid]	71.9%	89.7%	–
